# From ChEMBL document CHEMBL3124857, “Encoded library technology as a source of hits for the discovery and lead optimization of a potent and selective class of bactericidal direct inhibitors of Mycobacterium tuberculosis InhA” (J Med Chem, 2014)
# Calls of active or inactive are those of the source. No cut-off for these calls is given here.
# Assays:
# [1] = molecular target: T1, Cytochrome P450 1A2 (Homo sapiens, UniProt P05177); assay: Inhibition of human CYP1A2 by fluorescence assay; format: ADME
# T1 sequence (P05177 whole entry): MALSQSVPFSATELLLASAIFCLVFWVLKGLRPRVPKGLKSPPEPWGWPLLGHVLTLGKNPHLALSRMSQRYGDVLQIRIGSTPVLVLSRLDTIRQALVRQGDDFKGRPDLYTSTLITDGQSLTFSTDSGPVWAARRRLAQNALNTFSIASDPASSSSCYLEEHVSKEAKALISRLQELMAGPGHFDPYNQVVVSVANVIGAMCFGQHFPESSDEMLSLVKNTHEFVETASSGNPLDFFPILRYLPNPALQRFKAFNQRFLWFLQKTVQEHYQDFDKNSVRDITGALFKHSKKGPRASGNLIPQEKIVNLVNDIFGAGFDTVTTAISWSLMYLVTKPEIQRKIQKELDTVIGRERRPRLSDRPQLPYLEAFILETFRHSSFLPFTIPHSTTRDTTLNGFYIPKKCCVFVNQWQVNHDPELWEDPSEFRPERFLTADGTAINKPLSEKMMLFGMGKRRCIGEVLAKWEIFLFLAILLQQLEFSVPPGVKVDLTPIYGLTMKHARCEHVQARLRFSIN
# [2] = Volume of distribution in C57BL/6J mouse at 4 mg/kg, iv; format: ADME, organism-based; parameters: dose 4 mg/kg, route intravenous; conditions: in vivo
# [3] = tested on: Mycobacterium tuberculosis; assay: Antitubercular activity against wild type Mycobacterium tuberculosis H37Rv ATCC 25618 assessed as growth inhibition after 6 days by resazurin dye-based assay; format: functional; conditions: H37Rv ATCC 25618, 144 h
# [4] = Plasma protein binding in human at 1 uM after 4 to 6 hrs by LC-MS/MS analysis; format: ADME, cell-free; conditions: read-out: PPB (converted)
# [5] = Cmax in C57BL/6J mouse at 50 mg/kg, po; format: ADME, organism-based; parameters: dose 50 mg/kg, route oral; conditions: in vivo
# [6] = Cmax in C57BL/6J mouse at 1000 mg/kg, po measured at 24 hrs; format: ADME, organism-based; parameters: dose 1000 mg/kg, route oral; conditions: in vivo
# [7] = tested on: Liver microsome; assay: Intrinsic clearance in human liver microsomes at 0.5 uM; format: ADME
# [8] = Half life in human liver microsomes at 0.5 uM; format: ADME
# [9] = Permeability of the compound by artificial membrane permeability assay; format: physicochemical; conditions: PAMPA; read-out: permeability
# [10] = molecular target: Cytochrome P450 2C19 (Homo sapiens, UniProt P33261); assay: Inhibition of human CYP2C19 by fluorescence assay; format: ADME
# [11] = Intrinsic clearance in mouse liver microsomes at 0.5 uM; format: ADME, Microsome
# [12] = tested on: Mycobacterium tuberculosis; assay: Antitubercular activity against Mycobacterium tuberculosis H37Rv infected in C57BL/6 mouse assessed as reduction of bacterial CFU in lung at 500 to 1000 mg/kg, po administered for 8 days measured 24 hrs post last dose; format: functional, organism-based
# [13] = molecular target: Cytochrome P450 2D6 (Homo sapiens, UniProt P10635); assay: Inhibition of human CYP2D6 by fluorescence assay; format: ADME
# [14] = molecular target: Cytochrome P450 2C9 (Homo sapiens, UniProt P11712); assay: Inhibition of human CYP2C9 by fluorescence assay; format: ADME
# [15] = molecular target: Cytochrome P450 3A4 (Homo sapiens, UniProt P08684); assay: Inhibition of human CYP3A4 by fluorescence assay; format: ADME
# [16] = tested on: Mycobacterium tuberculosis; assay: Antitubercular activity against Mycobacterium tuberculosis infected in human THP1 cells assessed as growth inhibition after 5 days by luciferase reporter gene assay; format: functional, THP-1; conditions: 120 h
# [17] = AUC (0 to infinity) in C57BL/6J mouse at 50 mg/kg, po; format: ADME, organism-based; parameters: time infinity, dose 50 mg/kg, route oral; conditions: plasma
# [18] = Tmax in C57BL/6J mouse at 50 mg/kg, po; format: ADME, organism-based; parameters: dose 50 mg/kg, route oral; conditions: in vivo
# [19] = molecular target: T2, Enoyl-[acyl-carrier-protein] reductase [NADH] (Mycobacterium tuberculosis, UniProt P9WGR1); assay: Inhibition of Mycobacterium tuberculosis full length biotinylated InhA (270 amino acids) using DDCoA as substrate assessed as NADH oxidation by fluorimetric analysis
# T2 sequence (P9WGR1 whole entry): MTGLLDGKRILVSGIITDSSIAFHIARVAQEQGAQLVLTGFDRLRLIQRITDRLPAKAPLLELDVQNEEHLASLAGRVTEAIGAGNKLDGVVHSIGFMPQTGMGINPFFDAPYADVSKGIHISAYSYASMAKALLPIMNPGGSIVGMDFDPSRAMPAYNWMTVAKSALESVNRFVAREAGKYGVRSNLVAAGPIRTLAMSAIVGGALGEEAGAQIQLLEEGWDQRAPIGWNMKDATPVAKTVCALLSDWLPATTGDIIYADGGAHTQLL
# [20] = tested on: Mycobacterium tuberculosis; assay: Bactericidal activity against Mycobacterium tuberculosis H37Rv assessed as log reduction of bacterial CFU at 20 times MIC after 1 week relative to control; format: functional
# [21] = Lipophilicity, log D of the compound at pH 7.4 by chromatographic analysis; format: physicochemical; conditions: buffer
# [22] = Plasma protein binding in mouse at 1 uM after 4 to 6 hrs by LC-MS/MS analysis; format: ADME, cell-free; conditions: read-out: PPB (converted)
# [23] = Total AUC in C57BL/6J mouse at 1000 mg/kg, po measured at 24 hrs; format: ADME, organism-based; parameters: time AUCmax, dose 1000 mg/kg, route oral; conditions: in vivo
# [24] = Clearance in C57BL/6J mouse at 4 mg/kg, iv; format: ADME, organism-based; parameters: dose 4 mg/kg, route intravenous; conditions: in vivo
# [25] = Half life in C57BL/6J mouse at 4 mg/kg, iv; format: ADME, organism-based; parameters: dose 4 mg/kg, route intravenous; conditions: in vivo
# [26] = Oral bioavailability in C57BL/6J mouse at 50 mg/kg; format: ADME, organism-based; conditions: in vivo
# [27] = Half life in mouse liver microsomes at 0.5 uM; format: ADME, Microsome
# [28] = Kinetic solubility of the compound after 1 hr by CLND assay; format: physicochemical; conditions: for solubility kinetic at 1 h: read-out: Kinetic_solubility
# [29] = molecular target: Voltage-gated inwardly rectifying potassium channel KCNH2 (Homo sapiens, UniProt Q12809); assay: Displacement of [3H]-dofetilide from human ERG after 1 hr by liquid scintillation counting analysis
# [30] = tested on: Moraxella catarrhalis; assay: Antibacterial activity against Moraxella catarrhalis assessed as growth inhibition by broth microdilution assay; format: functional
# [31] = Intrinsic clearance in mouse hepatocytes at 1 uM; format: ADME, cell-based, Hepatocyte; conditions: read-out: CLH
# [32] = tested on: Streptococcus pneumoniae; assay: Antibacterial activity against Streptococcus pneumoniae assessed as growth inhibition by broth microdilution assay; format: functional
# [33] = tested on: Hepatocyte; assay: Drug metabolism in mouse hepatocytes assessed as N-dealkylated ethylamide metabolite formation; format: ADME, cell-based
# [34] = tested on: Streptococcus pyogenes; assay: Antibacterial activity against Streptococcus pyogenes assessed as growth inhibition by broth microdilution assay; format: functional
# [35] = tested on: Hepatocyte; assay: Drug metabolism in human hepatocytes assessed as N-dealkylated pyrazole metabolite formation; format: ADME, cell-based
# [36] = Half life in human hepatocytes at 10 uM; format: ADME, cell-based, Hepatocyte
# [37] = tested on: Hepatocyte; assay: Drug metabolism in mouse hepatocytes assessed as oxidized metabolite formation; format: ADME, cell-based
# [38] = Half life in mouse hepatocytes at 10 uM; format: ADME, cell-based, Hepatocyte
# [39] = tested on: Hepatocyte; assay: Drug metabolism in human hepatocytes assessed as N-dealkylated ethylamide metabolite formation; format: ADME, cell-based
# [40] = tested on: Escherichia coli; assay: Antibacterial activity against Escherichia coli assessed as growth inhibition by broth microdilution assay; format: functional
# [41] = tested on: Enterococcus faecium; assay: Antibacterial activity against Enterococcus faecium assessed as growth inhibition by broth microdilution assay; format: functional
# [42] = Intrinsic clearance in human hepatocytes at 1 uM; format: ADME, cell-based, Hepatocyte; conditions: read-out: CLH
# [43] = tested on: Hepatocyte; assay: Drug metabolism in mouse hepatocytes assessed as N-dealkylated pyrazole metabolite formation; format: ADME, cell-based
# [44] = tested on: Hepatocyte; assay: Drug metabolism in human hepatocytes assessed as oxidized metabolite formation; format: ADME, cell-based
# [45] = tested on: HepG2; assay: Cytotoxicity against human HepG2 cells after 48 hrs by resazurin dye-based fluorescence assay; format: cell-based; conditions: HepG2, 48 h
# [46] = tested on: Enterococcus faecalis; assay: Antibacterial activity against Enterococcus faecalis assessed as growth inhibition by broth microdilution assay; format: functional
# [47] = tested on: Haemophilus influenzae; assay: Antibacterial activity against Haemophilus influenzae assessed as growth inhibition by broth microdilution assay; format: functional
# [48] = tested on: Mycobacterium tuberculosis; assay: Antitubercular activity against Mycobacterium tuberculosis H37Rv infected in C57BL/6 mouse assessed as reduction of bacterial CFU in lung at 30 mg/kg, po administered for 8 days measured 24 hrs post last dose relative to control; format: functional
# [49] = tested on: Mycobacterium tuberculosis; assay: Bactericidal activity against Mycobacterium tuberculosis H37Rv assessed as log reduction of bacterial CFU at 1.2 ug/mL after 1 week; format: functional, organism-based
# [50] = Drug degradation assessed as formation of 2-((2S,4R)-1-(benzofuran-3-carbonyl)-4-(3-ethyl-1-methyl-1H-pyrazole-5-carboxamido)pyrrolidine-2-carboxamido)acetic acid; format: physicochemical
# Chain of Cytochrome P450 3A4 (P08684 whole entry): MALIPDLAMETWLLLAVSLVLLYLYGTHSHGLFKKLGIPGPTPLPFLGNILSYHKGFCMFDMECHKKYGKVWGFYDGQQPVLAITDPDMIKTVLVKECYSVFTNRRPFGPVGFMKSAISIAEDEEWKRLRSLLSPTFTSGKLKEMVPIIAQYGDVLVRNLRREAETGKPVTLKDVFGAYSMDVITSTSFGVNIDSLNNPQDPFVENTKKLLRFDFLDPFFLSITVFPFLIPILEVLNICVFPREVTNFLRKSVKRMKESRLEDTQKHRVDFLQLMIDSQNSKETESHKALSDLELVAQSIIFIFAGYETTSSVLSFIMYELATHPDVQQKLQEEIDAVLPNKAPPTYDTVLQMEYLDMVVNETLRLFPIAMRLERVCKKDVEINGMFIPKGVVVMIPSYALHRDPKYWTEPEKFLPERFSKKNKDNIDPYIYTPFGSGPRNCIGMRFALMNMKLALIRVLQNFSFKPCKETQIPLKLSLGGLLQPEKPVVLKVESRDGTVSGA
# Chain of Cytochrome P450 2C9 (P11712 whole entry): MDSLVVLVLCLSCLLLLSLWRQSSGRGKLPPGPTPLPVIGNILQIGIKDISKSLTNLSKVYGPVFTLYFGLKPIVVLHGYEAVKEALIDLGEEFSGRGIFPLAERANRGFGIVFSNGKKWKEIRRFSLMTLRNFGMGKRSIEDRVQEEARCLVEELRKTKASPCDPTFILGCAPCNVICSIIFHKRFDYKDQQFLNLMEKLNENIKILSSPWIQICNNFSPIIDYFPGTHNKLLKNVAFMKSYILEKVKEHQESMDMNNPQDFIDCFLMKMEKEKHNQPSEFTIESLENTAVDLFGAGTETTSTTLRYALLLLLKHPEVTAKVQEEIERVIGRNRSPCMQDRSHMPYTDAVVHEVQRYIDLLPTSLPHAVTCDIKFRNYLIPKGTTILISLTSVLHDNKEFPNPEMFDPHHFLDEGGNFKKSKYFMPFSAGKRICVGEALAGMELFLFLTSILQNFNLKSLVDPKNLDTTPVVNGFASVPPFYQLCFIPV
# Chain of Cytochrome P450 2C19 (P33261 whole entry): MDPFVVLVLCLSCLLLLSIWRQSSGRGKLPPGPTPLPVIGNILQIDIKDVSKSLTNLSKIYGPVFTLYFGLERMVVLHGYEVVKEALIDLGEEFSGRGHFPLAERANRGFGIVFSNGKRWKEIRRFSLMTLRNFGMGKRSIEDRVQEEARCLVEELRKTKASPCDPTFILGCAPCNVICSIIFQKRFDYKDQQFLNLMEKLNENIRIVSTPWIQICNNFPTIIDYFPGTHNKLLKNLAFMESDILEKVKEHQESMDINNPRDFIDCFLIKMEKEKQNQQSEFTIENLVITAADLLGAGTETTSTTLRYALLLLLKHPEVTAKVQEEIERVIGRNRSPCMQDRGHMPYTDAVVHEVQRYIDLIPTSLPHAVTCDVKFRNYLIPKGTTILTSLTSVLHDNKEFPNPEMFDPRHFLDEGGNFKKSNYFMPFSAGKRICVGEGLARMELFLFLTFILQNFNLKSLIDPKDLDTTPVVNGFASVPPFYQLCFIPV
# Chain of Cytochrome P450 2D6 (P10635 whole entry): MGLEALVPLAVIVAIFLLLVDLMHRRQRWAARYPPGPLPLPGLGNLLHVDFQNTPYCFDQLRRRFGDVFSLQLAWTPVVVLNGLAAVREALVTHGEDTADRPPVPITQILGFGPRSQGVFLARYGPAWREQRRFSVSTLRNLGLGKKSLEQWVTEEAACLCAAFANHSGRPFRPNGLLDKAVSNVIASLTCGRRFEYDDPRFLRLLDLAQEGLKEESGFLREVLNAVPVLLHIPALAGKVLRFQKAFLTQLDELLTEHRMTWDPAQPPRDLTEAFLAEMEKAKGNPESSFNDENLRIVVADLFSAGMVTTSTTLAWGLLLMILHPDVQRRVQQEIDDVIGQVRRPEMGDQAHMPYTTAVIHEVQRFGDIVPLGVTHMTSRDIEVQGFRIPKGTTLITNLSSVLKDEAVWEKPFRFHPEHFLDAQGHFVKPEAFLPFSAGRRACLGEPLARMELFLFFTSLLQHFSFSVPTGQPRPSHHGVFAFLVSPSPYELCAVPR
# Chain of Voltage-gated inwardly rectifying potassium channel KCNH2 (Q12809 whole entry): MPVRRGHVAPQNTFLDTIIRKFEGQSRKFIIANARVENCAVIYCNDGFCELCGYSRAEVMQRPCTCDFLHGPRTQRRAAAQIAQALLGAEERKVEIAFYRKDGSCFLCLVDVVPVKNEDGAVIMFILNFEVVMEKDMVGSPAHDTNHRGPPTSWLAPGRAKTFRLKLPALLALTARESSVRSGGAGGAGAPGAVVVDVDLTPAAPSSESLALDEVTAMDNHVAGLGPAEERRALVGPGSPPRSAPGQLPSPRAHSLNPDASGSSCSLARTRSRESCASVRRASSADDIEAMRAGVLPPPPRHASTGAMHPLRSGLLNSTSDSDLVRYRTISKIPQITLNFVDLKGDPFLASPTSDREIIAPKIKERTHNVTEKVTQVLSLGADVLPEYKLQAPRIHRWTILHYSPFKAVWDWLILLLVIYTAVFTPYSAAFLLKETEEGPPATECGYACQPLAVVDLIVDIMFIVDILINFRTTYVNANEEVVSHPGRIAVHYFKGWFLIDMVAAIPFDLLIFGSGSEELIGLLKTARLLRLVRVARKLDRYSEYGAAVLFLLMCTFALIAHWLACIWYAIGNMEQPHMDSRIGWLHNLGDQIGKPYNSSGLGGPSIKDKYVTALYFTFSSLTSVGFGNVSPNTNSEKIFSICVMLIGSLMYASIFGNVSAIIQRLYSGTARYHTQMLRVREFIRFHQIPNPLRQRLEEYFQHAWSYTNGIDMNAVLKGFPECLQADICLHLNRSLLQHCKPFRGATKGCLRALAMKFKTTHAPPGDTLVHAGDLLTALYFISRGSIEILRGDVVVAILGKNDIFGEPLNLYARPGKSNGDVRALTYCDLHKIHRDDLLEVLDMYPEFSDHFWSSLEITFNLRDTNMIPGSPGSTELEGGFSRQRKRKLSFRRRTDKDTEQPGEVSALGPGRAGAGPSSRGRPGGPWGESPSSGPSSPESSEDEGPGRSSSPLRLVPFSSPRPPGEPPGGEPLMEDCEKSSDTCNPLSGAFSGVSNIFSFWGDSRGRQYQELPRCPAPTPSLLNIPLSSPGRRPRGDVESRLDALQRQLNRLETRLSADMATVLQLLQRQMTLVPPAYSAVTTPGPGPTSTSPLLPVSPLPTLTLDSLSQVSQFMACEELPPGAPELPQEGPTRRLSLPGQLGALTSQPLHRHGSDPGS
compound,measurement,setting,value
CCc1cc(C(=O)N[C@@H]2C[C@@H](C(N)=O)N(C(=O)c3coc4ccccc34)C2)n(CC)n1,IC50,[1],> 50000 nM
same,Vd,[2],3.68 L/kg
same,MIC90,[3],0.5 µM
same,fraction unbound at 1 µM,[4],0.013
same,Cmax,[5],1750 ng/mL
same,Cmax,[6],23000 ng/mL
same,CLH,[7],< 0.3 mL/min/g
same,half-life at 0.5 µM,[8],> 30 min
same,Papp,[9],7.8 ×10⁻⁶ cm/s
same,IC50,[10],> 50000 nM
same,CLH,[11],< 0.3 mL/min/g
same,Activity,[12],inactive
same,IC50,[13],> 50000 nM
same,IC50,[14],> 50000 nM
same,IC50,[15],> 50000 nM
same,MIC,[16],0.24 µM
same,AUC(0-inf),[17],3590 ng·h/mL
same,Tmax,[18],49.8 min
same,IC50,[19],4 nM
same,FC,[20],>2
same,chromatographic logD,[21],2.94
same,fraction unbound at 1 µM,[22],0.153
same,AUC at 24 h,[23],73700 ng·h/mL
same,clearance,[24],85.5 mL/min/kg
same,half-life,[25],28.2 min
same,bioavailability,[26],35.6%
same,half-life at 0.5 µM,[27],> 30 min
same,solubility kinetic at 1 h,[28],> 441 µM
CCNC(=O)[C@@H]1C[C@@H](NC(=O)c2cc(CC)nn2C)CN1C(=O)c1coc2ccccc12,IC50,[29],> 50000 nM
same,IC50,[1],> 50000 nM
same,MIC,[30],> 64 µM
same,CLint scaled at 1 µM,[31],538 mL/min/kg
same,MIC,[3],8 µM
same,MIC,[32],> 64 µM
same,Drug metabolism,[33],Active
same,CLH,[7],0.7 mL/min/g
same,half-life at 0.5 µM,[8],> 30 min
same,Papp,[9],13 ×10⁻⁶ cm/s
same,MIC,[34],> 64 µM
same,IC50,[10],> 50000 nM
same,CLH,[11],2.6 mL/min/g
same,Drug metabolism,[35],Active
same,half-life at 10 µM,[36],227 min
same,IC50,[13],> 50000 nM
same,IC50,[14],> 50000 nM
same,IC50,[15],> 50000 nM
same,Drug metabolism,[37],Active
same,IC50,[19],34 nM
same,half-life at 10 µM,[38],27 min
same,Drug metabolism,[39],Active
same,chromatographic logD,[21],2.93
same,fraction unbound at 1 µM,[22],0.144
same,MIC,[40],> 64 µM
same,MIC,[41],> 64 µM
same,CLint scaled at 1 µM,[42],19 mL/min/kg
same,Drug metabolism,[43],Active
same,Drug metabolism,[44],Active
same,IC50,[45],> 50000 nM
same,MIC,[46],> 64 µM
same,half-life at 0.5 µM,[27],28 min
same,solubility kinetic at 1 h,[28],> 448 µM
same,MIC,[47],> 64 µM
COc1c(N2C[C@@H]3CCCN[C@@H]3C2)c(F)cc2c(=O)c(C(=O)O)cn(C3CC3)c12 [MOXIFLOXACIN],fold change (FC),[48],3.48
same,Activity,[49],Active
CCc1cc(C(=O)N[C@@H]2C[C@@H](C(=O)NCC(=O)OC)N(C(=O)c3coc4ccccc34)C2)n(C)n1,Stability,[50],Unstable
same,MIC90,[3],0.5 µM
same,IC50,[19],5 nM
same,Kinetic_solubility,[28]; 1 h,soluble
CCc1cc(C(=O)N[C@@H]2C[C@@H](C(=O)NCc3nc4ccccc4o3)N(C(=O)c3coc4ccccc34)C2)n(C)n1,MIC90,[3],0.5 µM
same,IC50,[19],3 nM
CCc1cc(C(=O)N[C@@H]2C[C@@H](C(=O)NCc3ccccn3)N(C(=O)c3coc4ccccc34)C2)n(CC)n1,MIC90,[3],0.7 µM
same,IC50,[19],2 nM
CCc1cc(C(=O)N[C@@H]2CCN(C(=O)c3coc4ccccc34)C2)n(C)n1,MIC90,[3],> 31 µM
same,IC50,[19],120 nM
CCc1cc(C(=O)N[C@@H]2C[C@@H](C(=O)Nc3ccn(CC4CCCCC4)n3)N(C(=O)c3coc4ccccc34)C2)n(C)n1,MIC90,[3],> 31 µM
same,IC50,[19],> 1000 nM
